Experimental findings from US12485095B2, “Plurality of tasquinimod particles and use thereof” (ACTIVE BIOTECH AB, priority 2021, dated 2025) are described below.

The structures appear in SMILES notation. Converted amounts (≈) assume the structure as drawn.

A short description of data set [1]: gastrointestinal permeability using the Caco-2 cell model. As to conditions: human, read-out: permeability coefficient. In kind it is in vitro ADME. The procedure:
(§1) Tasquinimod is a compound having high gastrointestinal permeability and high aqueous solubility. […] For a drug compound to be classified as “highly soluble” according to the BCS, the highest single therapeutic dose thereof should be completely soluble in 250 ml or less of aqueous media over the pH range of 1.2-6.8 at 37±1° C. […] Based on these properties, tasquinimod is classified as a BCS Class I compound. […] In view of the high water-solubility of tasquinimod, the low dissolution rate of tasquinimod particles in aqueous phase was completely unexpected. A low dissolution rate is susceptible of reducing the bioavailability and may pose an obstacle to an efficient oral administration of an otherwise therapeutically active compound.

In another data set the test system is Caco-2 cell model. The description is as above. In kind it is in vitro ADME. The procedure:
as §1

The next data set in a line: pKa of tasquinimod. In kind it is physicochemical. As to conditions: weak acid.
Data set [2] in a line: aqueous solubility of tasquinimod. In kind it is physicochemical. The procedure:
as §1

Data set [3] can be described thus: Biopharmaceutics Classification System (BCS) classification. Type of data set: physicochemical. As to conditions: based on permeability and solubility. How it is done:
as §1

For the compound `COc1cccc2c1c(O)c(C(=O)N(C)c1ccc(C(F)(F)F)cc1)c(=O)n2C` [tasquinimod, 4-hydroxy-5-methoxy-N, 1-dimethyl-2-oxo-N-[4-(trifluoromethyl)phenyl]-1,2-dihydroquinoline-3-carboxamide], the Papp in data set [1] amounted to 43.5 ± 0.9 ×10⁻⁶ cm/s. In addition, the “permeability ranking according to the Biopharmaceutics Classification System (BCS)” value with Caco-2 cell model is “highly permeable”. Besides, the pKa – broadly, the pH at which an ionisable group is half protonated – in “pKa of tasquinimod” was found to be 6.5. Moreover, the “solubility relative to BCS "highly soluble" cut-off value” is “ten-fold” in data set [2] (aqueous media over the pH range of 1.2-6.8 at 37±1° C.) and 50 fold in data set [2] (physiological pH at 7.4). For the same compound, the concentration in solution in data set [2] (aqueous medium, pH 7.4, aqueous buffer) (solubility) came to 250 µg/mL (≈ 615 µM). Moreover, in data set [3], the BCS class entry is recorded as “BCS Class I”.
